From US10287255B2, “Compounds as histone deacetylase 6 inhibitors and pharmaceutical compositions comprising the same” (CHONG KUN DANG PHARMACEUTICAL CORP., priority 2014, dated 2019)

Columns and labels:
[1] = target: T1, human recombinant HDAC1 (Homo sapiens, UniProt Q13547); assay: HDAC1 enzyme activity inhibition assay (in vitro, fluorimetric); assay type: biochemical; conditions: human recombinant HDAC1, fluorimetric kit, 30° C. 60 minutes
T1 construct: purchased Enzo Life Science BML-SE456
In short: (§1)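 IC50 values derive from fluorescence (Ex 360, Em 460) after developer treatment (30 min) of reactions of recombinant human HDAC1 or HDAC6 with 10 μM Fluor de Lys-SIRT1 substrate (60 min, 30 °C). Compounds were serially diluted 5-fold; 0.3 μg enzyme was used for HDAC1, with HDAC6 tested identically.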

[2] = target: T2, human recombinant HDAC6 (Homo sapiens, UniProt Q9UBN7); assay: HDAC6 enzyme activity inhibition assay (in vitro, fluorimetric); assay type: biochemical; conditions: for HDAC6 selectivity (fold): HDAC6 selectivity over HDAC1; for IC50: human recombinant HDAC6, fluorimetric kit, same protocol as HDAC1
T2 construct: purchased Calbiochem 382180
T2 sequence (Q9UBN7 1-1215): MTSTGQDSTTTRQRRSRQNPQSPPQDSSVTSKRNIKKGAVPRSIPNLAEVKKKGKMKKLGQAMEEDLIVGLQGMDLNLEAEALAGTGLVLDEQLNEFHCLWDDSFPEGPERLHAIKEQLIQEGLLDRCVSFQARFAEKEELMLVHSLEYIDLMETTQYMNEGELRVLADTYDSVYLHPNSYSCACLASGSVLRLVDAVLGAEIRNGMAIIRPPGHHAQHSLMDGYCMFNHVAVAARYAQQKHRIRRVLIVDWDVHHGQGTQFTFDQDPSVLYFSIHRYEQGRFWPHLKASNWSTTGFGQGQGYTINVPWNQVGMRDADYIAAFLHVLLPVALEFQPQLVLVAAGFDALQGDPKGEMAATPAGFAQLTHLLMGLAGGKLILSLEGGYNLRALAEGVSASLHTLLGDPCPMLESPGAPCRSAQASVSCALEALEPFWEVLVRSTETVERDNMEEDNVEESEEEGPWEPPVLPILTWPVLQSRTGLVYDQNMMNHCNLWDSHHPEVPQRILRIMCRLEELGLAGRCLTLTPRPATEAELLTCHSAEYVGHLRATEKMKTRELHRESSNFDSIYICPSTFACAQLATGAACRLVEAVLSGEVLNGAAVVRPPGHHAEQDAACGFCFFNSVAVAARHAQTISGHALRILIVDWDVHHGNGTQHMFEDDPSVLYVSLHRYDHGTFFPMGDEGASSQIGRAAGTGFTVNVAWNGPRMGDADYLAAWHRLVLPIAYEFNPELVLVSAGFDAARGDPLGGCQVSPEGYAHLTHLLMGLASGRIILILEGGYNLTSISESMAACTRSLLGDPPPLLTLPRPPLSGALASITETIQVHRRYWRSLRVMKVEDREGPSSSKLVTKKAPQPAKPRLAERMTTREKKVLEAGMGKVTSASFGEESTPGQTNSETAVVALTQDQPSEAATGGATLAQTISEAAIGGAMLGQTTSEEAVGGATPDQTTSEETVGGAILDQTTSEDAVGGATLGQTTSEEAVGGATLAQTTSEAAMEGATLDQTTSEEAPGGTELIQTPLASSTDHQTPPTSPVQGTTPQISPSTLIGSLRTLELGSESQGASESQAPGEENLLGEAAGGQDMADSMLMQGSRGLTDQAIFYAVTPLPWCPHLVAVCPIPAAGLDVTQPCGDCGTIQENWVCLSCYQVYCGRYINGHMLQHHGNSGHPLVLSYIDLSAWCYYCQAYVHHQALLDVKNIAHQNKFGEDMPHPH
In short: as §1

T1 sequence (Q13547 whole entry): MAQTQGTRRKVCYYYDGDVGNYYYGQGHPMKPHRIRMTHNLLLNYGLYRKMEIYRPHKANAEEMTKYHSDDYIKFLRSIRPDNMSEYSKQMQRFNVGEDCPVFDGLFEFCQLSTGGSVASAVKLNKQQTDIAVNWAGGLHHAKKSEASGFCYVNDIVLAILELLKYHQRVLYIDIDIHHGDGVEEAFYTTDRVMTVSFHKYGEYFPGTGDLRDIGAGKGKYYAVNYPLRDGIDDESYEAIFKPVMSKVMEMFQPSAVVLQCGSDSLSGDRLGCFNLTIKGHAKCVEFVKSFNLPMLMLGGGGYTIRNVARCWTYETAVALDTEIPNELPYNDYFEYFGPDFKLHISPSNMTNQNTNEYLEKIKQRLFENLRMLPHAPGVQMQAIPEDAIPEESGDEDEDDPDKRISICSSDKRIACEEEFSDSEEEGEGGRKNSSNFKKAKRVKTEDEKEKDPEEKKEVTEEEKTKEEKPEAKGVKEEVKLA

Q: With `CCN(CC)Cc1cccc(CN2[C@H](C)CN(Cc3ccc(C(=O)NO)cc3)C[C@@H]2C)c1` [Compound 426, 4-(((3R,5S)-4-(3-((diethylamino)methyl)benzyl)-3,5-dimethylpiperazin-1-yl)methyl)-N-hydroxybenzamide] as the molecule, how does the IC50 [1] read?
A: Its IC50 is 5 µM.

Q: And the “HDAC6 selectivity (fold)” value [2]?
A: The value was 35 fold.

Q: What about the IC50 [2] of the same molecule?
A: The IC50 was 0.142 µM.

Q: How did the IC50 [1] turn out when `C[C@@H]1CN(Cc2ccc(C(=O)NO)cc2)C[C@H](C)N1Cc1cccc(CN2CCCC2)c1` [Compound 427, 4-(((3R,5S)-3,5-dimethyl-4-(3-(pyrrolidin-1-ylmethyl)benzyl)piperazin-1-yl)methyl)-N-hydroxybenzamide] was run?
A: Its IC50 is 6 µM.

Q: What about the “HDAC6 selectivity (fold)” value [2] of the same molecule?
A: Its value is 40 fold.

Q: What about the IC50 [2] of the same molecule?
A: The IC50 was 0.152 µM.

Q: Which IC50 [1] does the source give for `C[C@@H]1CN(Cc2ccc(C(=O)NO)cc2)C[C@H](C)N1Cc1cccc(CN2CCN(C)CC2)c1` [Compound 428, 4-(((3R,5S)-3,5-dimethyl-4-(3-((4-methylpiperazin-1-yl)methyl)benzyl)piperazin-1-yl)methyl)-N-hydroxybenzamide] here?
A: The IC50 was 4.7 µM.

Q: And the “HDAC6 selectivity (fold)” value [2]?
A: The value was 41 fold.

Q: What about the IC50 [2] of the same molecule?
A: Its IC50 is 0.117 µM.

Q: Which results are given for `CCN1CCN(Cc2cccc(CN3[C@H](C)CN(Cc4ccc(C(=O)NO)cc4)C[C@@H]3C)c2)CC1` [Compound 429, 4-(((3R,5S)-4-(3-((4-ethylpiperazin-1-yl)methyl)benzyl)-3,5-dimethylpiperazin-1-yl)methyl)-N-hydroxybenzamide]?
A: IC50 [1]: 4.4 µM; HDAC6 selectivity (fold) [2]: 44 fold; IC50 [2]: 0.1 µM

Q: Which IC50 [1] does the source give for `CC(C)N1CCN(Cc2cccc(CN3[C@H](C)CN(Cc4ccc(C(=O)NO)cc4)C[C@@H]3C)c2)CC1` [Compound 430, N-hydroxy-4-(((3R,5S)-4-(3-((4-isopropylpiperazin-1-yl)methyl)benzyl)-3,5-dimethylpiperazin-1-yl)methyl)benzamide] here?
A: The IC50 was 4.5 µM.

Q: And the “HDAC6 selectivity (fold)” value [2]?
A: Its value is 55 fold.

Q: What about the IC50 [2] of the same molecule?
A: The IC50 was 0.082 µM.

Q: `CC(=O)N1CCN(Cc2cccc(CN3[C@H](C)CN(Cc4ccc(C(=O)NO)cc4)C[C@@H]3C)c2)CC1` [Compound 431, 4-(((3R,5S)-4-(3-((4-acetylpiperazin-1-yl)methyl)benzyl)-3,5-dimethylpiperazin-1-yl)methyl)-N-hydroxybenzamide] was tested. Which IC50 [1] did it give?
A: The IC50 was 13.4 µM.

Q: And the “HDAC6 selectivity (fold)” value [2]?
A: The value was 611 fold.

Q: What about the IC50 [2] of the same molecule?
A: Its IC50 is 0.022 µM.

Q: `C[C@@H]1CN(Cc2ccc(C(=O)NO)cc2)C[C@H](C)N1C(=O)c1cccc(CN2CCN(C)CC2)c1` [Compound 432, 4-(((3R,5S)-3,5-dimethyl-4-(3-((4-methylpiperazin-1-yl)methyl)benzoyl)piperazin-1-yl)methyl)-N-hydroxybenzamide] was tested. Which IC50 [1] did it give?
A: Its IC50 is 3.4 µM.

Q: And the “HDAC6 selectivity (fold)” value [2]?
A: The value was 81 fold.

Q: What about the IC50 [2] of the same molecule?
A: The IC50 was 0.042 µM.

Q: How did the IC50 [1] turn out when `CCN1CCN(Cc2cccc(C(=O)N3[C@H](C)CN(Cc4ccc(C(=O)NO)cc4)C[C@@H]3C)c2)CC1` [Compound 433, 4-(((3R,5S)-4-(3-((4-ethylpiperazin-1-yl)methyl)benzoyl)-3,5-dimethylpiperazin-1-yl)methyl)-N-hydroxybenzamide] was run?
A: Its IC50 is 3.5 µM.

Q: What about the “HDAC6 selectivity (fold)” value [2] of the same molecule?
A: Its value is 71 fold.

Q: And the IC50 [2]?
A: Its IC50 is 0.049 µM.

Q: What does the source list for `CC(C)N1CCN(Cc2cccc(C(=O)N3[C@H](C)CN(Cc4ccc(C(=O)NO)cc4)C[C@@H]3C)c2)CC1` [Compound 434, N-hydroxy-4-(((3R,5S)-4-(3-((4-isopropylpiperazin-1-yl)methyl)benzoyl)-3,5-dimethylpiperazin-1-yl)methyl)benzamide]?
A: IC50 [1]: 3.7 µM; HDAC6 selectivity (fold) [2]: 61 fold; IC50 [2]: 0.06 µM

Q: Which IC50 [1] does the source give for `CC(=O)N1CCN(Cc2cccc(C(=O)N3[C@H](C)CN(Cc4ccc(C(=O)NO)cc4)C[C@@H]3C)c2)CC1` [Compound 435, 4-(((3R,5S)-4-(3-((4-acetylpiperazin-1-yl)methyl)benzoyl)-3,5-dimethylpiperazin-1-yl)methyl)-N-hydroxybenzamide] here?
A: Its IC50 is 5.1 µM.

Q: And the “HDAC6 selectivity (fold)” value [2]?
A: Its value is 57 fold.

Q: And the IC50 [2]?
A: Its IC50 is 0.09 µM.

Q: What does the source list for `C[C@@H]1CN(Cc2ccc(C(=O)NO)cc2)C[C@H](C)N1C(=O)c1cccc(CN2CCOCC2)c1` [Compound 439, 4-(((3R,5S)-3,5-dimethyl-4-(3-(morpholinomethyl)benzoyl)piperazin-1-yl)methyl)-N-hydroxybenzamide]?
A: IC50 [1]: 10.9 µM; HDAC6 selectivity (fold) [2]: 105 fold; IC50 [2]: 0.104 µM

Q: How did the IC50 [1] turn out when `CCN(CC)CC(C)NCc1cccc(C(=O)N2[C@H](C)CN(Cc3ccc(C(=O)NO)cc3)C[C@@H]2C)c1` (stereo partly drawn) [Compound 440, 4-(((3R,5S)-4-(3-(((1-(diethylamino)propan-2-yl)amino)methyl)benzoyl)-3,5-dimethylpiperazin-1-yl)methyl)-N-hydroxybenzamide] was run?
A: Its IC50 is 5.6 µM.

Q: What about the “HDAC6 selectivity (fold)” value [2] of the same molecule?
A: The value was 71 fold.

Q: And the IC50 [2]?
A: The IC50 was 0.078 µM.

Q: What does the source list for `CC(CN(C)Cc1ccccc1)NCc1cccc(C(=O)N2[C@H](C)CN(Cc3ccc(C(=O)NO)cc3)C[C@@H]2C)c1` (stereo partly drawn) [Compound 441, 4-(((3R,5S)-4-(3-(((1-(benzyl(methyl)amino)propan-2-yl)amino)methyl)benzoyl)-3,5-dimethylpiperazin-1-yl)methyl)-N-hydroxybenzamide]?
A: IC50 [1]: 5.4 µM; HDAC6 selectivity (fold) [2]: 154 fold; IC50 [2]: 0.035 µM

Q: How did the IC50 [1] turn out when `CC(C)CCN1CCN(Cc2cccc(C(=O)N3[C@H](C)CN(Cc4ccc(C(=O)NO)cc4)C[C@@H]3C)c2)CC1` [Compound 442, N-hydroxy-4-(((3R,5S)-4-(3-((4-isopentylpiperazin-1-yl)methyl)benzoyl)-3,5-dimethylpiperazin-1-yl)methyl)benzamide] was run?
A: Its IC50 is 7.8 µM.

Q: What about the “HDAC6 selectivity (fold)” value [2] of the same molecule?
A: Its value is 65 fold.

Q: And the IC50 [2]?
A: The IC50 was 0.12 µM.

Q: What does the source list for `C[C@@H]1CN(Cc2ccc(C(=O)NO)cc2)C[C@H](C)N1C(=O)c1cccc(CN2CCN(CC(F)(F)F)CC2)c1` [Compound 443, 4-(((3R,5S)-3,5-dimethyl-4-(3-((4-(2,2,2-trifluoroethyl)piperazin-1-yl)methyl)benzoyl)piperazin-1-yl)methyl)-N-hydroxybenzamide]?
A: IC50 [1]: 9.6 µM; HDAC6 selectivity (fold) [2]: 68 fold; IC50 [2]: 0.141 µM

Q: For `C[C@@H]1CN(Cc2ccc(C(=O)NO)cc2)C[C@H](C)N1C(=O)c1cccc(CN2CCN(S(C)(=O)=O)CC2)c1` [Compound 444, 4-(((3R,5S)-3,5-dimethyl-4-(3-((4-(methylsulfonyl)piperazin-1-yl)methyl)benzoyl)piperazin-1-yl)methyl)-N-hydroxybenzamide], which IC50 [1] is on record?
A: Its IC50 is 8.5 µM.

Q: And the “HDAC6 selectivity (fold)” value [2]?
A: Its value is 146 fold.

Q: What about the IC50 [2] of the same molecule?
A: Its IC50 is 0.058 µM.

Q: `C[C@@H]1CN(Cc2ccc(C(=O)NO)cc2)C[C@H](C)N1Cc1cccc(C(=O)N2CCOCC2)c1` [Compound 446, 4-(((3R,5S)-3,5-dimethyl-4-(3-(morpholine-4-carbonyl)benzyl)piperazin-1-yl)methyl)-N-hydroxybenzamide] was tested. Which IC50 [1] did it give?
A: The IC50 was 3.8 µM.

Q: And the “HDAC6 selectivity (fold)” value [2]?
A: The value was 33 fold.

Q: What about the IC50 [2] of the same molecule?
A: The IC50 was 0.114 µM.

Q: Which results are given for `C[C@@H]1CN(Cc2ccc(C(=O)NO)cc2)C[C@H](C)N1Cc1cccc(CN2CCN(S(C)(=O)=O)CC2)c1` [Compound 452, 4-(((3R,5S)-3,5-dimethyl-4-(3-((4-(methylsulfonyl)piperazin-1-yl)methyl)benzyl)piperazin-1-yl)methyl)-N-hydroxybenzamide]?
A: IC50 [1]: 9.1 µM; HDAC6 selectivity (fold) [2]: 140 fold; IC50 [2]: 0.065 µM

Q: Which IC50 [1] does the source give for `C[C@@H]1CN(Cc2ccc(C(=O)NO)cc2)C[C@H](C)N1Cc1cccc(CN2CCN(CC(F)(F)F)CC2)c1` [Compound 453, 4-(((3R,5S)-3,5-dimethyl-4-(3-((4-(2,2,2-trifluoroethyl)piperazin-1-yl)methyl)benzyl)piperazin-1-yl)methyl)-N-hydroxybenzamide] here?
A: Its IC50 is 11.9 µM.

Q: And the “HDAC6 selectivity (fold)” value [2]?
A: The value was 154 fold.

Q: And the IC50 [2]?
A: The IC50 was 0.077 µM.
